Earlier results in US11077099B2, “Oral tablet formulation of lenalidomide” (SAMYANG HOLDINGS CORPORATION, priority 2016, dated 2021).

Test system: multiple myeloma
Conditions: combination of lenalidomide and dexamethasone; patients with relapses or refractory disease

In the case of `Nc1cccc2c1CN(C1CCC(=O)NC1=O)C2=O` (centres unmarked) [lenalidomide], the disease-free survival time is given as 13.4 months and the overall survival is given as 38 months.
